Structures are written as SMILES.

The text below walks through data of patent publication US9357775B2, “Rosin-derived cationic compounds and polymers” (University of South Carolina, priority 2011, dated 2016).

Type in all cases: cell-based
Assay [1] deals with different bacterial strains. Kind of assay: Control experiments with residual copper catalysts and solvents. As to conditions: control for residual catalyst/solvent. As for the experimental part: To further confirm that the antimicrobial activities were not caused by residual copper catalysts and solvents (i.e. methanol), control experiments were carried out using these reagents against different bacterial strains.

Another assay deals with Gram-negative bacteria. Kind of assay: MIC determination by disk-diffusion method, Gram-negative bacteria. As to the method: (§1) Tests for antimicrobial activities were carried out using rosin-derived quaternary ammonium 1 and their polymer 4 with a number-average molecular weight of 7.5×105 g/mol. The antimicrobial susceptibilities of several Gram-negative bacteria (e.g. Pseudomonas aeruginosa, Escherichia coli, Enterobacter aerogenes, and Klebsiella pneumonia) and Gram-positive bacteria (Staphylococcus aureus and Bacillus cereus) were determined. These strains were purified at laboratory and maintained at −70° C. in a 1:1 mixture of glycerol and dimethylsulfoxide (DMSO). To conduct the assays, a small volume of actively-growing cultures of each bacterial strain is spread on agar plates, and incubated at 28° C. for 24 h to form a ‘bacterial lawn’ covering the plate surface. Then 6 mm (dia) filter discs are added to the surface, and 30 ul samples (containing each compound at several concentrations dissolved in DMSO) are applied to the disc surfaces, and the plates are incubated.
(§2) Considering the potential applications of antimicrobial compounds and polymers as coatings for food packaging, medical implants and devices, and antifouling surfaces, all subsequent MIC determinations were carried out using the disk-diffusion method.

In another assay the test system is Gram-positive bacteria. Put plainly: MIC determination by disk-diffusion method, Gram-positive bacteria. As for the experimental part:
as §1, §2
(Agar diffusion results depend on both activity and mobility in agar.)

`CO` [methanol]: in assay [1], the “toxicity against bacterial strains” value is given as “did not exhibit significant toxicity”.
As for `CC[N+](CC)(CC)CC.[Br-]` [TEAB, tetraethylammonium bromide], the “antimicrobial activity (control experiments)” value in the assay with Gram-negative bacteria and in the assay on Gram-positive bacteria was “no activities” throughout.
